The source of these data is US7638648B2, “Compounds having selective cytochrome P450RAI-1 or selective cytochrome P450RAI-2 inhibitory activity and methods of obtaining the same” (Allergan Inc., priority 2003, dated 2009).

One test addresses T1, P450RAI-1 (Homo sapiens, UniProt O43174).
T1 construct: expressed in transfected cells; host or cells: HeLa
T1 sequence (O43174 1-497): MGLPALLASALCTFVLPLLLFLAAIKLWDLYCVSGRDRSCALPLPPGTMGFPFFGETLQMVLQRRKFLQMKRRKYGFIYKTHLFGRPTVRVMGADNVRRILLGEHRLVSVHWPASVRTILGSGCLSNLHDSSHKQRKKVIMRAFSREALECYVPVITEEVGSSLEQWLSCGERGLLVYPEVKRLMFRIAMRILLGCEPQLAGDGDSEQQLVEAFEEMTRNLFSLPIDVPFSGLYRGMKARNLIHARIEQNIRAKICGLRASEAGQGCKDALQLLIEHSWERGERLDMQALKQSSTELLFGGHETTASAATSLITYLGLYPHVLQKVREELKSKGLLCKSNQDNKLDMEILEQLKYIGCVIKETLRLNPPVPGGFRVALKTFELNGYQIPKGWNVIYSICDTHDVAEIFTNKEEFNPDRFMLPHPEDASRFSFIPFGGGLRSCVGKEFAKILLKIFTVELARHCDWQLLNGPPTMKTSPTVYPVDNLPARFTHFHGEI
As to the kind of experiment: P450RAI-1 cell-based inhibitor assay (inhibition of all-trans-RA metabolism). To be noted: P450RAI-1 stably transfected HeLa cells, [3H]-RA, 3 hours at 37° C.; read-out: P450RAI-1 Whole cell IC50. The method, then:
(§1) P450RAI-1 and P450RAI-2 Cell-Based Inhibitor Assay:
(§2) P450RAI-1 stably transfected HeLa cells, or P450RAI-2 stably transfected HeLa cells, as applicable, are maintained in […] tissue culture dishes in Modified Eagle's Medium (MEM) containing 10% Fetal Bovine Serum (FBS) and 100 μg/ml hygromycin. Exponentially growing cells are harvested by incubating in trypsin. Cells are then washed with 1× Phosphate Buffered Saline (PBS) and plated in a 48-well plate at 5×10^5 cells in 0.2 ml MEM medium containing 10% FBS and 0.05 μCi [^3H]—RA in the presence or absence of increasing concentrations of the test compounds. The compounds are diluted in 100% DMSO and then added in triplicate wells at either 10, 1 or 0.1 μM final concentration. As a positive control for RA metabolism inhibition, cells are also incubated with ketoconazole at 100, 10 and 1 μM. Cells are incubated for 3 hours at 37° C. The retinoids are then extracted using the procedure of Bligh et al. (1959) Canadian Journal of Biochemistry 37, 911-917, modified by using methylenechloride instead of chloroform. The publication Bligh et al. (1959) Canadian Journal of Biochemistry 37, 911-917 is specifically incorporated herein by reference. The water soluble radioactivity is quantified using a β-scintillation counter. […]

The target in test [1] is T2, RAR γ (Homo sapiens, UniProt P13631).
T2 sequence (P13631 1-454): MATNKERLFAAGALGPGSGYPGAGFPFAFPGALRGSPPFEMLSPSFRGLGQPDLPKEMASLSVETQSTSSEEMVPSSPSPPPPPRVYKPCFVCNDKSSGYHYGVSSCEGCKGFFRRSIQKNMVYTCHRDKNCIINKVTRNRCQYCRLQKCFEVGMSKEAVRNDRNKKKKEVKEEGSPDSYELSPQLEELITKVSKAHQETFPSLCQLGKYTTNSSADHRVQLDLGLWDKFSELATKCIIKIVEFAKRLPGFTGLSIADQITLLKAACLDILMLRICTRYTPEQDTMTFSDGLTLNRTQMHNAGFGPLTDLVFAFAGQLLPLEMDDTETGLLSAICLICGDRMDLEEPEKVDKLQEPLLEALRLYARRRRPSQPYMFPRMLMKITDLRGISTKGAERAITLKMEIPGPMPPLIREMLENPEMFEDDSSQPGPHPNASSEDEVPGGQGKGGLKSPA
As to the kind of experiment: RARγ EC50/efficacy (Table 1). It is filed as cell-based. To be noted: value in parentheses.

Test [2] addresses T2, RAR γ. As to the kind of experiment: RARγ binding Kd (Table 1). To be noted: last item of cell.
The next test deals with T3, RAR β (Homo sapiens, UniProt P10826).
T3 sequence (P10826 1-455): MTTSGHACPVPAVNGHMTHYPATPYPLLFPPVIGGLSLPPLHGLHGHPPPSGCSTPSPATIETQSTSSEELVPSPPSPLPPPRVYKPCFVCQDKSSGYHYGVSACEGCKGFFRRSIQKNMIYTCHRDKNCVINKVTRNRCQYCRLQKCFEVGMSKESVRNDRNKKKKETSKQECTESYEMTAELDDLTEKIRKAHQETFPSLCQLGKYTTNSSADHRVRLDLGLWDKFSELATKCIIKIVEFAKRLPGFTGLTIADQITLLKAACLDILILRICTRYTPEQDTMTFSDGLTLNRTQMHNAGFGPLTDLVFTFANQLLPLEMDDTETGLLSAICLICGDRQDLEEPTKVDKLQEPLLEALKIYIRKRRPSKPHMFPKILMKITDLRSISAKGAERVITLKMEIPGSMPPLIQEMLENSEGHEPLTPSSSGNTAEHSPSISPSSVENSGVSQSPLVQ
Nature of the test: RARβ binding Kd (Table 1). To be noted: last item of cell.

For the next test, the target named is T4, RAR α (Homo sapiens, UniProt P10276).
T4 sequence (P10276 1-462): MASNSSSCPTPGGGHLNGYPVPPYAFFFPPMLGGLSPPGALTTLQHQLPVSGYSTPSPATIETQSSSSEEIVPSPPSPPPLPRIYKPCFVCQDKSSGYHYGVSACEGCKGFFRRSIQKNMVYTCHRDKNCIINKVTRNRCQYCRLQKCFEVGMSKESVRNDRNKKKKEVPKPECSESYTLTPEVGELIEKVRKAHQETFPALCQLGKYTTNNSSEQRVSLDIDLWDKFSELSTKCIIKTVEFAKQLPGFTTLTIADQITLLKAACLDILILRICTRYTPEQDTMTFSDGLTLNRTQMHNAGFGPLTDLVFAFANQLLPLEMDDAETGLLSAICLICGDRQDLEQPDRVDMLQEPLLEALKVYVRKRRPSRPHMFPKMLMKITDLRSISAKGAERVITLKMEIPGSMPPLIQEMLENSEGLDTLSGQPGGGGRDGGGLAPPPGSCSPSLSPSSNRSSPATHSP
As to the kind of experiment: RARα binding Kd (Table 1). To be noted: last item of cell.

The target of the next test is T5, P450RAI-2 (Homo sapiens, UniProt Q9NR63).
T5 construct: expressed in transfected cells; host or cells: HeLa
T5 sequence (Q9NR63 1-512): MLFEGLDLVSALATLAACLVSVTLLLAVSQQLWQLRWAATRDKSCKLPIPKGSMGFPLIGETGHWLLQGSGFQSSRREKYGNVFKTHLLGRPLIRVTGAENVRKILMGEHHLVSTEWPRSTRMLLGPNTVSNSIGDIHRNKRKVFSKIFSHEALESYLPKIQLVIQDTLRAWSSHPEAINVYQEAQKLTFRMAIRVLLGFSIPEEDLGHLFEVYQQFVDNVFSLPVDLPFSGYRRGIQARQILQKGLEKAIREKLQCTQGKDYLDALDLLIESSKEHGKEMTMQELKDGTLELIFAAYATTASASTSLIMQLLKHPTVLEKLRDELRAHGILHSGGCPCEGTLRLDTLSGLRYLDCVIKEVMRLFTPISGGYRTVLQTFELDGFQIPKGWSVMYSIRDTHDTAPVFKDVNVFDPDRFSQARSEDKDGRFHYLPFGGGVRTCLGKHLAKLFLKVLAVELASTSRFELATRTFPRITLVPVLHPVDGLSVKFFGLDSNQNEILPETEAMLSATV
As to the kind of experiment: P450RAI-2 cell-based inhibitor assay (inhibition of all-trans-RA metabolism). The settings on record: P450RAI-2 stably transfected HeLa cells, [3H]-RA, 3 hours at 37° C.; read-out: P450RAI-2 Whole cell IC50. The procedure: as §1, §2

Molecules are shown by their SMILES.

The term IC50 denotes the concentration that inhibits the measured activity by half. Consider `CC(C)c1cc(C(=O)Oc2ccc(/C=C/C(=O)O)cc2)cc2c1OC(C)(C)CC2(C)C` [Compound 16, 8-Isopropyl-2,2,4,4-tetramethyl-chroman-6-carboxylic acid 4-(2-carboxy-vinyl)-phenyl ester], for which, on P450RAI-1, the IC50 was determined as 1.3 µM.
For the compound `C=Cc1c(C)c(C#Cc2ccc(CC(=O)O)cc2)cc(C(C)(C)C)c1OC(C)C` [Compound 46, [4-(5-tert-Butyl-4-isopropoxy-2-methyl-3-vinyl-phenylethynyl)-phenyl]-acetic acid], at RAR γ [1], the “RAR γ (EFFICACY)” value worked out at 68.
For orientation: Kd means a measure of binding affinity in units of concentration. A high value points to lower affinity. As for `CN(C1CC1)C1CCC(C)(C)c2cc(C#Cc3ccc(/C=C/C(=O)O)cc3)cc(C3CC3)c21` (stereo not drawn) [Compound 48, 3-{4-[4-Cyclopropyl-5-(cyclopropyl-methyl-amino)-8,8-dimethyl-5,6,7,8-tetrahydro-naphthalen-2-ylethynyl]-phenyl}-acrylic acid], the Kd on RAR γ [2], on RAR β and at RAR α was above 10 µM each time.
As for `CC(C(=O)O)c1ccc(C#Cc2cc(C3CC3)c3c(c2)C(C)(C)CCC3N(C)C2CC2)cc1` (stereo not drawn) [Compound 49, 2-{4-[4-Cyclopropyl-5-(cyclopropyl-methyl-amino)-8,8-dimethyl-5,6,7,8-tetrahydro-naphthalen-2-ylethynyl]-phenyl}-propionic acid], on P450RAI-2, the IC50 is above 10 µM.
